PubChem BioAssay AID1845194 (Molecular Pharmacology Branch, DTP, NCI, 2023)

System: 287954-098-R-J1 tumor spheroid viability
Experiment: Anticancer human tumor 287954-098-R-J1 patient-derived Ewing sarcoma cell line growth inhibition
Details: spheroids with HUVEC and MSC; for IC50: curve of first compound; for viability, T/C: stronger effect = lower value
How it was run: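 Single agents and combinations were tested on spheroids built from tumor cells plus HUVEC and hMSC, at half-log dilutions starting at or near clinical Cmax, else 10 microM; final DMSO 0.25% (v/v).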
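Note: spheroids exposed to compound for 7 days before viability readout.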
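Throughout, for viability, T/C: luminescent signal taken as surrogate of viable cell content; 100% = DMSO vehicle control viability and lower means growth inhibition.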

CC(C)n1c(=O)n(C)c2cnc3cc(F)c(-c4ccc(OCCCN5CCCCC5)nc4)cc3c21 + Cn1nnc2c(C(N)=O)ncn2c1=O
IC50 (second compound 1 µM): > 10000 nM
IC50 (second compound 3.16 µM): > 10000 nM
IC50 (second compound 10 µM): > 10000 nM
IC50 (second compound 31.6 µM): > 10000 nM
IC50 (second compound 100 µM): > 10000 nM
viability, T/C (second compound 1 µM, first compound 0.0316 µM): 97%
viability, T/C (second compound 1 µM, first compound 0.1 µM): 97.6%
viability, T/C (second compound 1 µM, first compound 0.316 µM): 110%
viability, T/C (second compound 1 µM, first compound 1 µM): 108%
viability, T/C (second compound 1 µM, first compound 3.16 µM): 105%
viability, T/C (second compound 1 µM, first compound 10 µM): 97.9%
viability, T/C (second compound 3.16 µM, first compound 0.0316 µM): 106%
viability, T/C (second compound 3.16 µM, first compound 0.1 µM): 110%
viability, T/C (second compound 3.16 µM, first compound 0.316 µM): 110%
viability, T/C (second compound 3.16 µM, first compound 1 µM): 112%
viability, T/C (second compound 3.16 µM, first compound 3.16 µM): 118%
viability, T/C (second compound 3.16 µM, first compound 10 µM): 85.9%
viability, T/C (second compound 10 µM, first compound 0.0316 µM): 109%
viability, T/C (second compound 10 µM, first compound 0.1 µM): 105%
viability, T/C (second compound 10 µM, first compound 0.316 µM): 104%
viability, T/C (second compound 10 µM, first compound 1 µM): 109%
viability, T/C (second compound 10 µM, first compound 3.16 µM): 118%
viability, T/C (second compound 10 µM, first compound 10 µM): 79.6%
viability, T/C (second compound 31.6 µM, first compound 0.0316 µM): 113%
viability, T/C (second compound 31.6 µM, first compound 0.1 µM): 110%
viability, T/C (second compound 31.6 µM, first compound 0.316 µM): 105%
viability, T/C (second compound 31.6 µM, first compound 1 µM): 113%
viability, T/C (second compound 31.6 µM, first compound 3.16 µM): 113%
viability, T/C (second compound 31.6 µM, first compound 10 µM): 85.2%
viability, T/C (second compound 100 µM, first compound 0.0316 µM): 92.5%
viability, T/C (second compound 100 µM, first compound 0.1 µM): 104%
viability, T/C (second compound 100 µM, first compound 0.316 µM): 94.3%
viability, T/C (second compound 100 µM, first compound 1 µM): 112%
viability, T/C (second compound 100 µM, first compound 3.16 µM): 109%
viability, T/C (second compound 100 µM, first compound 10 µM): 103%

Cc1sc2c(c1C)C(c1ccc(Cl)cc1)=NC(CC(=O)Nc1ccc(O)cc1)c1nnc(C)n1-2 (stereo not given) + CC[C@@]1(O)C(=O)OCc2c1cc1n(c2=O)Cc2cc3c(CN(C)C)c(O)ccc3nc2-1
IC50 (second compound 0.003 µM): 555 nM
IC50 (second compound 0.00949 µM): 185 nM
IC50 (second compound 0.03 µM): < 9.49 nM
IC50 (second compound 0.0949 µM): < 9.49 nM
IC50 (second compound 0.3 µM): < 9.49 nM
viability, T/C (second compound 0.003 µM, first compound 0.00949 µM): 110%
viability, T/C (second compound 0.003 µM, first compound 0.03 µM): 117%
viability, T/C (second compound 0.003 µM, first compound 0.0949 µM): 123%
viability, T/C (second compound 0.003 µM, first compound 0.3 µM): 90.1%
viability, T/C (second compound 0.003 µM, first compound 0.949 µM): 15.2%
viability, T/C (second compound 0.003 µM, first compound 3 µM): 1.91%
viability, T/C (second compound 0.00949 µM, first compound 0.00949 µM): 117%
viability, T/C (second compound 0.00949 µM, first compound 0.03 µM): 112%
viability, T/C (second compound 0.00949 µM, first compound 0.0949 µM): 106%
viability, T/C (second compound 0.00949 µM, first compound 0.3 µM): 9.5%
viability, T/C (second compound 0.00949 µM, first compound 0.949 µM): 1.8%
viability, T/C (second compound 0.00949 µM, first compound 3 µM): 1.47%
viability, T/C (second compound 0.03 µM, first compound 0.00949 µM): 2.84%
viability, T/C (second compound 0.03 µM, first compound 0.03 µM): 3%
viability, T/C (second compound 0.03 µM, first compound 0.0949 µM): 1.99%
viability, T/C (second compound 0.03 µM, first compound 0.3 µM): 1.63%
viability, T/C (second compound 0.03 µM, first compound 0.949 µM): 1.17%
viability, T/C (second compound 0.03 µM, first compound 3 µM): 1.04%
viability, T/C (second compound 0.0949 µM, first compound 0.00949 µM): 1.98%
viability, T/C (second compound 0.0949 µM, first compound 0.03 µM): 2.06%
viability, T/C (second compound 0.0949 µM, first compound 0.0949 µM): 1.8%
viability, T/C (second compound 0.0949 µM, first compound 0.3 µM): 1.32%
viability, T/C (second compound 0.0949 µM, first compound 0.949 µM): 1.09%
viability, T/C (second compound 0.0949 µM, first compound 3 µM): 1.22%
viability, T/C (second compound 0.3 µM, first compound 0.00949 µM): 1.94%
viability, T/C (second compound 0.3 µM, first compound 0.03 µM): 2.02%
viability, T/C (second compound 0.3 µM, first compound 0.0949 µM): 1.68%
viability, T/C (second compound 0.3 µM, first compound 0.3 µM): 1.25%
viability, T/C (second compound 0.3 µM, first compound 0.949 µM): 1.2%
viability, T/C (second compound 0.3 µM, first compound 3 µM): 1%
